| SMILES | melting point |
| --- | --- |
| CC(C)(O)c1ccc(-c2cnc3c(n2)N(CCN2CCOCC2)CC(=O)N3)cn1 [Example 5, 6-(6-(2-Hydroxypropan-2-yl)pyridin-3-yl)-4-(2-morpholinoethyl)-3,4-dihydropyrazino[2,3-b]pyrazin-2(1H)-one] | 239 to 241 °C |
| O=C1CNc2ncc(-c3cnc4[nH]ccc4c3)nc2N1CCC1CCOCC1 [Example 15, 7-(1H-Pyrrolo[2,3-b]pyridin-5-yl)-1-(2-(tetrahydro-2h-pyran-4-yl)ethyl)-3,4-dihydropyrazino[2,3-b]pyrazin-2(1H)-one] | 255 to 258 °C |
